In PubChem BioAssay (NCI) one finds TGI data, which are given here for 25 molecules.

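Step 1: Grow cells in 96-well plates. Step 2: Expose to compound for 48 hours at 5 concentrations. Step 3: Interpolate endpoints linearly; if unreached, use highest concentration. TGI is the concentration that stops growth completely.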

Holding throughout (test): growth of human tumour cells (NCI), 48 h
Assay [1] concerns MALME-3M melanoma.
In assay [2] the test system is TK-10 renal.
The test system of assay [3] is IGROV1 ovarian.
The subject of assay [4] is SK-OV-3 ovarian.
The test system of assay [5] is HCC-2998 colon.
The subject of assay [6] is NCI-H23 lung.
Assay [7] has as its system UACC-257 melanoma.
In assay [8] the test system is OVCAR-8 ovarian.

For the molecule `COc1ccc2oc(-c3ccc(OC)c(OC)c3OC)cc(=O)c2c1`, the TGI in assay [1], in assay [2], in assay [3], in assay [4], in assay [5] and in assay [6] was over 100 µM in each case. Besides, in assay [7], the TGI is over 100 µM.

With `c1ccc(SC23C4C5C6C4C2C6C53)nc1` (stereo not drawn), the TGI in assay [1], in assay [2], in assay [3], in assay [4], in assay [5] and in assay [8] was over 100 µM in each case. The TGI in assay [6] and in assay [7] was over 100 µM throughout.

Turning to `Cc1nc(/C=C2\C(=O)C=Cc3ccccc32)c(O)o1`, the TGI in assay [1], in assay [3], in assay [5], in assay [8], in assay [6] and in assay [7] was over 100 µM in each case.

Take `CCOc1ccc(NCC2CC/C(=C\c3ccccc3OC)C2=O)cc1` (stereo not drawn): the TGI is 27.6 µM in assay [1]; 26.7 µM in assay [2]; 25.5 µM in assay [3]; 31.1 µM in assay [4]; 25.8 µM in assay [5]; 13 µM in assay [8]. For the same molecule, the TGI in assay [6] worked out at 34.7 µM; in assay [7] it was 20 µM.

Regarding `COC(=O)/C(C#N)=C(\N)C(Cl)(Cl)Cl`, the TGI in assay [2] came to 7.55 µM; in assay [4] it was 5.3 µM; in assay [5], 9.41 µM; in assay [8], 4.68 µM; in assay [7], 12.6 µM.

Consider `CCCCCCCCCCCCCCCCCCNC(=S)/N=C/c1c(O)c2ccccc2[nH]c1=O`, for which the TGI worked out at 56.1 µM in assay [2]; 21.2 µM in assay [3]; 49.1 µM in assay [4]; 31.1 µM in assay [5]; 29.6 µM in assay [8]; 37.5 µM in assay [6]. In assay [7], this molecule registered a TGI of 37.1 µM.

For `Cc1ccc(S(=O)(=O)OC(COC(=O)c2ccccc2)C(OS(=O)(=O)c2ccc(C)cc2)C(OS(=O)(=O)c2ccc(C)cc2)C(COC(=O)c2ccccc2)OS(=O)(=O)c2ccc(C)cc2)cc1` (stereo not drawn), the TGI in assay [1] was over 100 µM; in assay [2], over 100 µM; in assay [3] it was over 10 µM; in assay [4], over 10 µM; in assay [5] it was over 100 µM; in assay [8], over 100 µM. The TGI in assay [6] and in assay [7] was over 100 µM throughout.

In the case of `COc1cc(C(C)c2cc3c(cc2OCCNC(=O)COc2cc4c(cc2C(C)c2cc(OC)c(OC)c(OC)c2)OCO4)OCO3)cc(OC)c1OC` (stereo not drawn), the TGI in assay [1], in assay [2], in assay [3], in assay [5], in assay [8] and in assay [6] was over 100 µM each time. This molecule displayed a TGI in assay [7] of over 100 µM.

With `Cc1cc(C)c(C(=O)O)c(SSc2cc(C)cc(C)c2C(=O)O)c1`, the TGI in assay [1], in assay [2], in assay [4], in assay [8], in assay [6] and in assay [7] was over 100 µM throughout.

For `CCOC(=O)C(Cc1ccccc1)NC(=O)c1[nH]cnc1/N=N/N(C)C` (stereo not drawn), the TGI in assay [1], in assay [3], in assay [4], in assay [5], in assay [8] and in assay [6] was over 100 µM in each case. Besides, the TGI in assay [7] is over 100 µM.

As for `O=C1CNC(=O)c2[nH]cnc2N1`, the TGI in assay [1], in assay [2], in assay [3], in assay [4], in assay [5] and in assay [8] was over 100 µM in each case. In assay [6], this molecule showed a TGI of over 100 µM.

With `C=CCC1(C(=O)OC(C)(C)C)C(OC)=C(C(=O)OC(C)(C)C)C2C1C(C(=O)OC(C)(C)C)=C(OC)C2(CC=C)C(=O)OC(C)(C)C` (stereo not drawn), the TGI in assay [2], in assay [3], in assay [4], in assay [5], in assay [8] and in assay [6] was over 100 µM throughout. The TGI in assay [7] was over 100 µM.

In the case of `CC1=NOC(=O)/C1=C/c1ccc([N+](=O)[O-])cc1`, the TGI in assay [1], in assay [2], in assay [3], in assay [4], in assay [5] and in assay [8] was over 100 µM each time. Further, the TGI in assay [6] and in assay [7] was over 100 µM in each case.

Consider `COC(=O)C(CC(=O)Nc1ccc(Cl)c(Cl)c1)C(=O)C(=O)Nc1ccc(Cl)c(Cl)c1` (stereo not drawn), for which the TGI in assay [1], in assay [2], in assay [3], in assay [4], in assay [5] and in assay [8] was over 100 µM each time. In addition, the TGI in assay [6] and in assay [7] was over 100 µM throughout.

`COc1ccc(C(=O)CC2=Nc3nnc(CCCCCCCc4nnc5n4C(=O)C(CC(=O)c4ccc(OC)cc4)=N5)n3C2=O)cc1`: the TGI in assay [1], in assay [2], in assay [3], in assay [4], in assay [5] and in assay [8] was over 100 µM each time. For the same molecule, the TGI in assay [6] and in assay [7] was over 100 µM in each case.

As to `O=S(=O)(N=NC=C1c2ccccc2N(O)c2ccccc21)c1ccc(Cl)cc1`, the TGI in assay [1], in assay [2], in assay [3], in assay [4], in assay [5] and in assay [8] was over 100 µM in each case. Besides, the TGI in assay [6] and in assay [7] was over 100 µM throughout.

For the molecule `N#CC(C#N)=Cc1ccc(CP(=O)(O)O)cc1`, the TGI in assay [1], in assay [2], in assay [3], in assay [4], in assay [5] and in assay [8] was over 100 µM throughout. Besides, the TGI in assay [6] and in assay [7] was over 100 µM in each case.

Regarding `Cc1nc(N)nc(N)c1CCCc1ccccc1`, the TGI was 95.7 µM in assay [1]; over 100 µM in assay [2]; over 100 µM in assay [3]; over 100 µM in assay [4]; 39.2 µM in assay [5]; over 100 µM in assay [8]. Moreover, the TGI in assay [6] and in assay [7] was over 100 µM each time.

`CC(=O)NNc1nc(C)c(C(=O)/C=C/c2ccc(Cl)cc2)s1`: the TGI in assay [1], in assay [2], in assay [3], in assay [4], in assay [5] and in assay [8] was over 100 µM throughout. The TGI in assay [6] and in assay [7] was over 100 µM in each case.

On to `CCn1c2c(c3ccccc31)[C@@H](c1ccc(Cl)cc1)CC1C(=O)N(c3ccccc3)C(=O)C21` (stereo partly drawn), for which the TGI in assay [1], in assay [2], in assay [3], in assay [4], in assay [5] and in assay [8] was over 100 µM throughout. The TGI in assay [6] and in assay [7] was over 100 µM in each case.

Take `CCCCc1c2cnccc2c(CCCC)c2c1[nH]c1ccccc12`: the TGI is 37.8 µM in assay [1]; 34.6 µM in assay [2]; 30.3 µM in assay [3]; 42.2 µM in assay [4]; over 100 µM in assay [5]; 31.1 µM in assay [8]. In addition, the TGI in assay [6] is 36.2 µM; in assay [7], 36 µM.

Turning to `CCCN(CCC)C(=O)c1nc(N)nc(-c2ccc(OC)cc2)c1-c1ccc(OC)cc1`, the TGI in assay [1], in assay [2], in assay [3], in assay [4], in assay [8] and in assay [6] was over 100 µM in each case. The TGI in assay [7] was over 100 µM.

Regarding `CC(C(=O)c1ccccc1)C1(O)C(=O)Nc2ccc(Cl)cc21` (stereo not drawn), the TGI in assay [1], in assay [2], in assay [3], in assay [4], in assay [5] and in assay [8] was over 100 µM throughout. Moreover, the TGI in assay [6] and in assay [7] was over 100 µM each time.

With `COc1cc2c(cc1OC)C1Cc3ccc(OC)c(OC)c3C[N+]1([O-])CC2` (stereo not drawn), the TGI in assay [1], in assay [2], in assay [5], in assay [8], in assay [6] and in assay [7] was over 100 µM each time.

Turning to `COc1ccc2c(c1)NC1(O)c3ccccc3C(=O)C21O` (stereo not drawn), the TGI in assay [1], in assay [2], in assay [3], in assay [4], in assay [8] and in assay [6] was over 100 µM in each case. The molecule further came in with a TGI in assay [7] of over 100 µM.
